Test results taken from ChEMBL document CHEMBL1909046, “DrugMatrix in vitro pharmacology data”.

Experiments:
[1] = target: T1, Alpha-1D adrenergic receptor (Homo sapiens, UniProt P25100); format: cell membranes, HEK293, Membrane; further: in other assays of this panel Not Active means under 50% inhibition at 10 µM
T1 sequence (P25100 whole entry): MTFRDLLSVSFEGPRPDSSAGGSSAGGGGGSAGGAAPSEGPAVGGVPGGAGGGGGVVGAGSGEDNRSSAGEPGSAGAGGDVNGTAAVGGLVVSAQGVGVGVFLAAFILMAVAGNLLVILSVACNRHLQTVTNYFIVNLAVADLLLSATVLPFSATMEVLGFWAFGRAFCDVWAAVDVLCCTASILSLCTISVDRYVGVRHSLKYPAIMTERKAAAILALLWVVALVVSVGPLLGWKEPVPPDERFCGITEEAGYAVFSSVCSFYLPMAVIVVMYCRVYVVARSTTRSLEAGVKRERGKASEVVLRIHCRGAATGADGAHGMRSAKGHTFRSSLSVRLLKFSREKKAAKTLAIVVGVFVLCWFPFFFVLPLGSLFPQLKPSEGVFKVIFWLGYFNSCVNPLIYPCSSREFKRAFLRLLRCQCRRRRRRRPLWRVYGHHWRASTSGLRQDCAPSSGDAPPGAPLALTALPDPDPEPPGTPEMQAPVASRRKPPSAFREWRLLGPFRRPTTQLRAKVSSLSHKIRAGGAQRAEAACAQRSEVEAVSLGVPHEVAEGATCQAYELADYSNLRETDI

[2] = target: 5-hydroxytryptamine receptor 4 (Cavia porcellus, UniProt O70528); format: cell membranes, Dunkin-Hartley, Striatum, Membrane; further: in other assays of this panel Not Active means under 50% inhibition at 10 µM
5-hydroxytryptamine receptor 4, sequence (O70528 whole entry): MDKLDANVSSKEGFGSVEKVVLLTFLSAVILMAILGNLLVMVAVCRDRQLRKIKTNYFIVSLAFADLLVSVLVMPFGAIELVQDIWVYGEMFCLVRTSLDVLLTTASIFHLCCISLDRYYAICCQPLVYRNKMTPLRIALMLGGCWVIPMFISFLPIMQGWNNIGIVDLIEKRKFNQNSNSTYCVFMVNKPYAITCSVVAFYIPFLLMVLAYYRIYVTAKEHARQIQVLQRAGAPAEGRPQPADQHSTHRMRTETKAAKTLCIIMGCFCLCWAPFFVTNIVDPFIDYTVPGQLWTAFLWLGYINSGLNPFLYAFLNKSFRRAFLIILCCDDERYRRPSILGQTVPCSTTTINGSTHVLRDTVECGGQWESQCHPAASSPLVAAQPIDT

[3] = target: 5-hydroxytryptamine receptor 6 (Homo sapiens, UniProt P50406); format: cell membranes, HeLa, Membrane; further: in other assays of this panel Not Active means under 50% inhibition at 10 µM
5-hydroxytryptamine receptor 6, sequence (P50406 whole entry): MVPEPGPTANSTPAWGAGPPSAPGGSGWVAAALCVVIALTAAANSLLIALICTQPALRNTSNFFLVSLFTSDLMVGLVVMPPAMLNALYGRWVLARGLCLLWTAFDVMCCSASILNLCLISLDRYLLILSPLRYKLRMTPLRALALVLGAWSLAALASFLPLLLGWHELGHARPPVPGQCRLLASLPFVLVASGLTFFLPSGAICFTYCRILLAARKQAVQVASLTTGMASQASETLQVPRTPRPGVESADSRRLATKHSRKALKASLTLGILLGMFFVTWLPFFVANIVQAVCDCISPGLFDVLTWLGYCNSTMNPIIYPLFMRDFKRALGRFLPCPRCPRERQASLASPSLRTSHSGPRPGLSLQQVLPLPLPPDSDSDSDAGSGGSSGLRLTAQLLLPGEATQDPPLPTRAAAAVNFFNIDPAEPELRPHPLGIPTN

[4] = target: Substance-P receptor (Homo sapiens, UniProt P25103); format: cell membranes, CHO, Membrane; conditions: cho; further: in other assays of this panel Not Active means under 50% inhibition at 10 µM
Substance-P receptor, sequence (P25103 whole entry): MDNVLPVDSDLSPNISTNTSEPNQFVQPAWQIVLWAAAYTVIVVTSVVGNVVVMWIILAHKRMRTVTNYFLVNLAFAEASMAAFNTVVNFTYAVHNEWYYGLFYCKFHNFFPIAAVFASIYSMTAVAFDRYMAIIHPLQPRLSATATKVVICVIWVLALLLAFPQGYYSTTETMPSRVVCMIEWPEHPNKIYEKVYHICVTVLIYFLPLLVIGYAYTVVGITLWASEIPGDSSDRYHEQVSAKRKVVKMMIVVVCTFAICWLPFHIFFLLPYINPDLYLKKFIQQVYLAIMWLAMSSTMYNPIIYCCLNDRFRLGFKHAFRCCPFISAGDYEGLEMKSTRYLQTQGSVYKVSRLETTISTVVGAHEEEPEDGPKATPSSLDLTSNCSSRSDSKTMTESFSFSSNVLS

[5] = target: T2, Endothelin-1 receptor (Homo sapiens, UniProt P25101); format: cell membranes, Membrane; conditions: cho-k1; further: in other assays of this panel Not Active means under 50% inhibition at 10 µM
T2 sequence (P25101 whole entry): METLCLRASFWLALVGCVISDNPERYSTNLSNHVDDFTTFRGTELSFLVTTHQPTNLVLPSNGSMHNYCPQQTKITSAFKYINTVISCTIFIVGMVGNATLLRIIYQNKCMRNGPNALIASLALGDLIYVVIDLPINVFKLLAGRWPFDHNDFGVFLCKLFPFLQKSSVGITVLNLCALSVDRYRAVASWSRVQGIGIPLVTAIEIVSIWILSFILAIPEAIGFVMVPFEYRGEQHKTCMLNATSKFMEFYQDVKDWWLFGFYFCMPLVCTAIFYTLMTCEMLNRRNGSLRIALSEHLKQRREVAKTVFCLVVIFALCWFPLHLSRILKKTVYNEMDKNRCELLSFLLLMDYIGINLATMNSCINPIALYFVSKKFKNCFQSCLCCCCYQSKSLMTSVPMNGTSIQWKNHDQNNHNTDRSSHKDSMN

[6] = target: T3, Cysteinyl leukotriene receptor 1 (Homo sapiens, UniProt Q9Y271); format: cell membranes, CHO-K1, Membrane; conditions: cho-k1; further: in other assays of this panel Not Active means under 50% inhibition at 10 µM
T3 sequence (Q9Y271 whole entry): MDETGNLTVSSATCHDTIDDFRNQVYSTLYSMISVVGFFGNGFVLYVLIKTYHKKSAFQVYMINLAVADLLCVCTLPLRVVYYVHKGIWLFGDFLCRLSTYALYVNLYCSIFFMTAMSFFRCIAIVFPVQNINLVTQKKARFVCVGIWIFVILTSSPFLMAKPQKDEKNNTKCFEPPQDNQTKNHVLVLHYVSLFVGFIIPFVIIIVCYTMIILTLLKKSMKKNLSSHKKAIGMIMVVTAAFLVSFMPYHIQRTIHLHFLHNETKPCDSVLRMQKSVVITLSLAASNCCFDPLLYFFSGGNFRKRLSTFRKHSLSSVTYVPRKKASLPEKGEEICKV

[7] = target: Melanocortin receptor 3 (Homo sapiens, UniProt P41968); format: cell membranes, Membrane; conditions: hek293; further: in other assays of this panel Not Active means under 50% inhibition at 10 µM
Melanocortin receptor 3, sequence (P41968 whole entry): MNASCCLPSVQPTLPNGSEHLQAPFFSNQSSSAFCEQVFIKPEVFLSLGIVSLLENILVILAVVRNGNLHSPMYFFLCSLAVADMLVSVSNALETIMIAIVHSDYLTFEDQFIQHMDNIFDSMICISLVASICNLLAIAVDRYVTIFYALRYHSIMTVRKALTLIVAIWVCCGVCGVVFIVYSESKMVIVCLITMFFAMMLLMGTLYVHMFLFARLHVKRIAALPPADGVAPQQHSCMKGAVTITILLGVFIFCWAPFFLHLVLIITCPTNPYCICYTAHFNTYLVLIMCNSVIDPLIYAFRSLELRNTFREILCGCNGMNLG

[8] = target: Mitogen-activated protein kinase 3 (Homo sapiens, UniProt P27361); assay: DRUGMATRIX: Protein Serine/Threonine Kinase, ERK1 enzyme inhibition (substrate: Myelin Basic Protein); parameters: species or system Escherichia coli; conditions: Not Active = under 50% inhibition at 10 µM
Mitogen-activated protein kinase 3, sequence (P27361 whole entry): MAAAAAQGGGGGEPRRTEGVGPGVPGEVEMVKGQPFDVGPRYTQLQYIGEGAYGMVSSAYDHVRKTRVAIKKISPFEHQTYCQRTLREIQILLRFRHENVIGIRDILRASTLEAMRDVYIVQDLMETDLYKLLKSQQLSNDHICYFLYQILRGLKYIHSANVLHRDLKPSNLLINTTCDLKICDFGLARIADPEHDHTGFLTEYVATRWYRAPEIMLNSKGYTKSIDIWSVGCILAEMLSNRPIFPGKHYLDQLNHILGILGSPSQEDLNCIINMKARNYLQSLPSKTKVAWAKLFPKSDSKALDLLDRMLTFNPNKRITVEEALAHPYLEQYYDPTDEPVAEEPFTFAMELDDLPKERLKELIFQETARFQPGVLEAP

[9] = target: Mitogen-activated protein kinase 1 (Homo sapiens, UniProt P28482); assay: DRUGMATRIX: Protein Serine/Threonine Kinase, ERK2 enzyme inhibition (substrate: Myelin Basic Protein); parameters: species or system Escherichia coli; conditions: Not Active = under 50% inhibition at 10 µM
Mitogen-activated protein kinase 1, sequence (P28482 whole entry): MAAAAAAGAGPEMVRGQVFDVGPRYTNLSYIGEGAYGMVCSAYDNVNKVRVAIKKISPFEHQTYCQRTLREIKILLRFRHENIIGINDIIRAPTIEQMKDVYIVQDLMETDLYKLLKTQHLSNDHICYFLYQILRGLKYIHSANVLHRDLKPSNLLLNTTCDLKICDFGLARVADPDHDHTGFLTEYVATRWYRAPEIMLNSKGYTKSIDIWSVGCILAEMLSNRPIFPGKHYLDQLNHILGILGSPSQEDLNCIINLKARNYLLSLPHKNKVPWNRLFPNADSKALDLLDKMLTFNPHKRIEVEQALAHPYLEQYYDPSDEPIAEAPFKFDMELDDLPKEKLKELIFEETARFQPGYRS

[10] = target: 5-hydroxytryptamine receptor 1B (Rattus norvegicus, UniProt P28564); format: cell membranes, Wistar, Cerebral cortex, Membrane; further: in other assays of this panel Not Active means under 50% inhibition at 10 µM
5-hydroxytryptamine receptor 1B, sequence (P28564 whole entry): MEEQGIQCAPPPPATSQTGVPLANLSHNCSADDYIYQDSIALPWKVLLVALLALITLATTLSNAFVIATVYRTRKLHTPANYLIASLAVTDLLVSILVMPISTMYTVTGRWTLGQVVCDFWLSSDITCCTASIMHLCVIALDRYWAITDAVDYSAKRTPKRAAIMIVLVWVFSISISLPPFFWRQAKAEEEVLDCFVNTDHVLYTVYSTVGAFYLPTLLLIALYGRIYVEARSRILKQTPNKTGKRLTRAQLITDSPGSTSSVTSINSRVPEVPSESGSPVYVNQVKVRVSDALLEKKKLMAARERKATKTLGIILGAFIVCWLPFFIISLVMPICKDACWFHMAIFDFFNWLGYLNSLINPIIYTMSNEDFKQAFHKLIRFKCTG

[11] = target: T4, Adenosine receptor A1 (Homo sapiens, UniProt P30542); format: cell membranes, CHO, Membrane; conditions: cho
T4 sequence (P30542 whole entry): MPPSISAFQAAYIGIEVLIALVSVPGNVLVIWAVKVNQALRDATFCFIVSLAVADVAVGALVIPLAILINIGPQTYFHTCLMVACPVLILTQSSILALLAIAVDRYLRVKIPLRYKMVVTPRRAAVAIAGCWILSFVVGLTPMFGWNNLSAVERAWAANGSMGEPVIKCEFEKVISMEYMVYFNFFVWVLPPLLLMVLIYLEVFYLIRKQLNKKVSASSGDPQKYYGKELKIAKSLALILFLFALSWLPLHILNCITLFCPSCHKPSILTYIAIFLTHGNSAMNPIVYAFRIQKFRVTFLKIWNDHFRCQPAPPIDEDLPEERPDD

[12] = target: T5, Cytochrome P450 1A2 (Homo sapiens, UniProt P05177); conditions: bti-tn-5b1-4; further: in other assays of this panel Not Active means under 50% inhibition at 10 µM
T5 sequence (P05177 whole entry): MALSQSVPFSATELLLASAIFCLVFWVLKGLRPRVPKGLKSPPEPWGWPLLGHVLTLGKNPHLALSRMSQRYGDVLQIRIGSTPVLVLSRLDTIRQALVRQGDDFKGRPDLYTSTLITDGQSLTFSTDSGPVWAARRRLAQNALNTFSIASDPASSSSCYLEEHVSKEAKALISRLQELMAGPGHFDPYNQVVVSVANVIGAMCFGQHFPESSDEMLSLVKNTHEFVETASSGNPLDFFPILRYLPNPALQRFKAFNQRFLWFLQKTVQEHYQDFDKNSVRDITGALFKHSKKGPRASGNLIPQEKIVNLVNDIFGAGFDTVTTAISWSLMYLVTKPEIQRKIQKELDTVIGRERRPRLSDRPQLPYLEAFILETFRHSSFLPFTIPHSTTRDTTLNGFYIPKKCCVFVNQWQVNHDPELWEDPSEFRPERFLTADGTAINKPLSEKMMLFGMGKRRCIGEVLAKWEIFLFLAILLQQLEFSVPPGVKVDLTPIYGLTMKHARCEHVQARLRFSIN

[13] = target: Cytochrome P450 2E1 (Homo sapiens, UniProt P05181); conditions: bti-tn-5b1-4; further: in other assays of this panel Not Active means under 50% inhibition at 10 µM
Cytochrome P450 2E1, sequence (P05181 whole entry): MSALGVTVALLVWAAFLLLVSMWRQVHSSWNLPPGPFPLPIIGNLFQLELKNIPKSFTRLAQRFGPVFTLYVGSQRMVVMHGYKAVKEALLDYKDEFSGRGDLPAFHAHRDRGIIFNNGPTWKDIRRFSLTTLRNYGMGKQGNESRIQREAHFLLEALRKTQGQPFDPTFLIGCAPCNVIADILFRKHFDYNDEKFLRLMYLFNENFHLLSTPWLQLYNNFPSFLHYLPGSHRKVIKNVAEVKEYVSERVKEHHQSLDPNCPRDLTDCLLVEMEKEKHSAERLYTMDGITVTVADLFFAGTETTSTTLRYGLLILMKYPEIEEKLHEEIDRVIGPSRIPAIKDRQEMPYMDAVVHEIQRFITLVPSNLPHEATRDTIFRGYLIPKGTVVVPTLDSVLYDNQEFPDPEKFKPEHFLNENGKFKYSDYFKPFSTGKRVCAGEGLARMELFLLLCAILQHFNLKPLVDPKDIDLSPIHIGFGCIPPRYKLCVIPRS

SMILES	IC50 ([1]; hek293)	IC50 [2]	IC50 ([3]; hela)	IC50 [4]	IC50 [5]	IC50 [6]	IC50 [7]	IC50 [8]	IC50 [9]	IC50 [10]	IC50 [11]	IC50 [12]	Ki [12]	IC50 [13]	Ki [13]	further results
C=C(C)[C@@H]1[C@H]2OC(=O)[C@@H]1[C@]1(O)C[C@H]3O[C@]34C(=O)O[C@H]2[C@]14C [PICROTOXININ]	Not Active	Not Active	Not Active	Not Active	Not Active	Not Active	Not Active	Not Active	Not Active	Not Active	Not Active	Not Active	Not Active	Not Active	Not Active	–
C[C@]12CCC(=O)C=C1CC[C@@H]1[C@@H]2C(=O)C[C@@]2(C)[C@H]1CC[C@]2(O)C(=O)CO [CORTISONE]	Not Active	Not Active	Not Active	Not Active	Not Active	Not Active	Not Active	Not Active	Not Active	Not Active	Not Active	Not Active	Not Active	Not Active	Not Active	–
CNCCC=C1c2ccccc2CCc2ccccc21 [NORTRIPTYLINE]	–	Not Active	–	Not Active	Not Active	Not Active	Not Active	Not Active	Not Active	–	Not Active	Not Active	Not Active	Not Active	Not Active	IC50 ([1]; read-out: IC50): 273 nM; Ki ([1]; read-out: Ki): 134 nM; IC50 ([3]; read-out: IC50): 554 nM; Ki ([3]; read-out: Ki): 257 nM; IC50 ([10]; read-out: IC50): 3200 nM; Ki ([10]; read-out: Ki): 1450 nM
CC[C@@]1(O)C(=O)OCc2c1cc1n(c2=O)Cc2cc3ccccc3nc2-1 [CAMPTOTHECIN]	Not Active	Not Active	Not Active	Not Active	Not Active	Not Active	Not Active	Not Active	Not Active	Not Active	Not Active	Not Active	Not Active	Not Active	Not Active	–
COc1ccc2c(c1)c(CC(=O)OCC(=O)O)c(C)n2C(=O)c1ccc(Cl)cc1 [ACEMETACIN]	Not Active	Not Active	Not Active	Not Active	Not Active	Not Active	Not Active	Not Active	Not Active	Not Active	Not Active	Not Active	Not Active	Not Active	Not Active	–
N=C(N)NCCCCNC(=N)N.O=S(=O)(O)O [ARCAINE SULFATE]	Not Active	Not Active	Not Active	Not Active	Not Active	Not Active	Not Active	Not Active	Not Active	Not Active	Not Active	Not Active	Not Active	Not Active	Not Active	–
CCOC(=O)c1ccc(N)cc1 [BENZOCAINE]	Not Active	Not Active	Not Active	Not Active	Not Active	Not Active	Not Active	Not Active	Not Active	Not Active	Not Active	Not Active	Not Active	Not Active	Not Active	–
CC1=Nc2ccc(Cl)cc2S(=O)(=O)N1 [DIAZOXIDE]	Not Active	Not Active	Not Active	Not Active	Not Active	Not Active	Not Active	Not Active	Not Active	Not Active	Not Active	Not Active	Not Active	Not Active	Not Active	–
COC(=O)[C@H](c1ccccc1Cl)N1CCc2sccc2C1 [CLOPIDOGREL]	Not Active	Not Active	Not Active	Not Active	Not Active	Not Active	Not Active	Not Active	Not Active	Not Active	Not Active	Not Active	Not Active	Not Active	Not Active	–
